# Experimental data taken from PubChem BioAssay AID1963438 (Molecular Pharmacology Branch, DTP, NCI, 2024).
# “And” between values parts separate entries of the source, which are not always exact repeats. Equal values may be shown once.
# Tested on: NCI-H510 multicellular tumor spheroid growth, % test/control
# Experiment: Anticancer human tumor NCI-H510 cell line growth inhibition [Asc];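 further: spheroids exposed to agents for 7 days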;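 on viability, T/C: 100% = DMSO vehicle control wells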
# Settings: for viability, T/C: stronger effect = lower value
# In short: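 Concentration series start at each agent's clinical Cmax, or at 10 microM when none is established, and drop in half-log steps; agents are applied alone or together to complex spheroids built with HUVEC and hMSC.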
# [1] = curve of first compound, second compound 0.03 µM
# [2] = curve of first compound, second compound 0.0949 µM
# [3] = curve of first compound, second compound 0.3 µM
# [4] = curve of first compound, second compound 0.949 µM
# [5] = curve of first compound, second compound 3 µM
# [6] = second compound 0.03 µM, first compound 0.00316 µM
# [7] = second compound 0.03 µM, first compound 0.01 µM
# [8] = second compound 0.03 µM, first compound 0.0316 µM
# [9] = second compound 0.03 µM, first compound 0.1 µM
# [10] = second compound 0.03 µM, first compound 0.316 µM
# [11] = second compound 0.03 µM, first compound 1 µM
# [12] = second compound 0.0949 µM, first compound 0.00316 µM
# [13] = second compound 0.0949 µM, first compound 0.01 µM
# [14] = second compound 0.0949 µM, first compound 0.0316 µM
# [15] = second compound 0.0949 µM, first compound 0.1 µM
# [16] = second compound 0.0949 µM, first compound 0.316 µM
# [17] = second compound 0.0949 µM, first compound 1 µM
# [18] = second compound 0.3 µM, first compound 0.00316 µM
# [19] = second compound 0.3 µM, first compound 0.01 µM
# [20] = second compound 0.3 µM, first compound 0.0316 µM
# [21] = second compound 0.3 µM, first compound 0.1 µM
# [22] = second compound 0.3 µM, first compound 0.316 µM
# [23] = second compound 0.3 µM, first compound 1 µM
# [24] = second compound 0.949 µM, first compound 0.00316 µM
# [25] = second compound 0.949 µM, first compound 0.01 µM
# [26] = second compound 0.949 µM, first compound 0.0316 µM
# [27] = second compound 0.949 µM, first compound 0.1 µM
# [28] = second compound 0.949 µM, first compound 0.316 µM
# [29] = second compound 0.949 µM, first compound 1 µM
# [30] = second compound 3 µM, first compound 0.00316 µM
# [31] = second compound 3 µM, first compound 0.01 µM
# [32] = second compound 3 µM, first compound 0.0316 µM
# [33] = second compound 3 µM, first compound 0.1 µM
# [34] = second compound 3 µM, first compound 0.316 µM
# [35] = second compound 3 µM, first compound 1 µM
# [36] = curve of first compound, second compound 0.01 µM
# [37] = curve of first compound, second compound 0.0316 µM
# [38] = curve of first compound, second compound 0.1 µM
# [39] = curve of first compound, second compound 0.316 µM
# [40] = curve of first compound, second compound 1 µM
# [41] = second compound 0.01 µM, first compound 0.0316 µM
# [42] = second compound 0.01 µM, first compound 0.1 µM
# [43] = second compound 0.01 µM, first compound 0.316 µM
# [44] = second compound 0.01 µM, first compound 1 µM
# [45] = second compound 0.0316 µM, first compound 0.0316 µM
# [46] = second compound 0.0316 µM, first compound 0.1 µM
# [47] = second compound 0.0316 µM, first compound 0.316 µM
# [48] = second compound 0.0316 µM, first compound 1 µM
# [49] = second compound 0.1 µM, first compound 0.0316 µM
# [50] = second compound 0.1 µM, first compound 0.1 µM
# [51] = second compound 0.1 µM, first compound 0.316 µM
# [52] = second compound 0.1 µM, first compound 1 µM
# [53] = second compound 0.316 µM, first compound 0.0316 µM
# [54] = second compound 0.316 µM, first compound 0.1 µM
# [55] = second compound 0.316 µM, first compound 0.316 µM
# [56] = second compound 0.316 µM, first compound 1 µM
# [57] = second compound 1 µM, first compound 0.0316 µM
# [58] = second compound 1 µM, first compound 0.1 µM
# [59] = second compound 1 µM, first compound 0.316 µM
# [60] = second compound 1 µM, first compound 1 µM
smiles,measurement,setting,value
CNC(C)C(=O)NC1CN(S(=O)(=O)c2cccc(S(=O)(=O)N3CCC4CCC(C(=O)NC(c5ccccc5)c5ccccc5)N4C(=O)C(NC(=O)C(C)NC)C3)c2)CCC2CCC(C(=O)NC(c3ccccc3)c3ccccc3)N2C1=O (stereo unspecified) + CCN1C(C(=O)NC23CCC(C(=O)O)(CC2)CC3)C(c2cccc(Cl)c2F)C2(C(=O)Nc3cc(Cl)ccc32)C12CCCCC2,IC50,[1],> 1000 nM
same,IC50,[2],> 1000 nM
same,IC50,[3],> 1000 nM
same,IC50,[4],> 1000 nM
same,IC50,[5],> 1000 nM
same,"viability, T/C",[6],96.8%
same,"viability, T/C",[7],81.6%
same,"viability, T/C",[8],96.8%
same,"viability, T/C",[9],101%
same,"viability, T/C",[10],95.6%
same,"viability, T/C",[11],97.8%
same,"viability, T/C",[12],98.5%
same,"viability, T/C",[13],104%
same,"viability, T/C",[14],87.8%
same,"viability, T/C",[15],77.2%
same,"viability, T/C",[16],105%
same,"viability, T/C",[17],83.5%
same,"viability, T/C",[18],81.6%
same,"viability, T/C",[19],106%
same,"viability, T/C",[20],106%
same,"viability, T/C",[21],93.4%
same,"viability, T/C",[22],89.8%
same,"viability, T/C",[23],83.7%
same,"viability, T/C",[24],110%
same,"viability, T/C",[25],99.8%
same,"viability, T/C",[26],118%
same,"viability, T/C",[27],96.6%
same,"viability, T/C",[28],102%
same,"viability, T/C",[29],81.7%
same,"viability, T/C",[30],86.5%
same,"viability, T/C",[31],92%
same,"viability, T/C",[32],117%
same,"viability, T/C",[33],84.1%
same,"viability, T/C",[34],87.3%
same,"viability, T/C",[35],110%
COc1c(OCCCN2CCOCC2)ccc2c3n(c(=NC(=O)c4cnc(N)nc4)nc12)CCN3 + CCN1C(C(=O)NC23CCC(C(=O)O)(CC2)CC3)C(c2cccc(Cl)c2F)C2(C(=O)Nc3cc(Cl)ccc32)C12CCCCC2,IC50,[1],> 1000 nM
same,IC50,[2],> 1000 nM
same,IC50,[3],> 1000 nM
same,IC50,[4],> 1000 nM
same,IC50,[5],> 1000 nM
same,"viability, T/C",[6],94.2%
same,"viability, T/C",[7],112%
same,"viability, T/C",[8],96.4%
same,"viability, T/C",[9],93.6%
same,"viability, T/C",[10],70%
same,"viability, T/C",[11],58.7%
same,"viability, T/C",[12],94.3%
same,"viability, T/C",[13],91%
same,"viability, T/C",[14],98.4%
same,"viability, T/C",[15],99.3%
same,"viability, T/C",[16],92.5%
same,"viability, T/C",[17],65.6%
same,"viability, T/C",[18],92.3%
same,"viability, T/C",[19],101%
same,"viability, T/C",[20],105%
same,"viability, T/C",[21],105%
same,"viability, T/C",[22],95.6%
same,"viability, T/C",[23],51.2%
same,"viability, T/C",[24],80.6%
same,"viability, T/C",[25],99.5%
same,"viability, T/C",[26],114%
same,"viability, T/C",[27],104%
same,"viability, T/C",[28],62%
same,"viability, T/C",[29],80.4%
same,"viability, T/C",[30],112%
same,"viability, T/C",[31],105%
same,"viability, T/C",[32],73.9%
same,"viability, T/C",[33],85%
same,"viability, T/C",[34],86.5%
same,"viability, T/C",[35],83.3%
Cn1ncnc1[C@H]1c2n[nH]c(=O)c3cc(F)cc(c23)N[C@@H]1c1ccc(F)cc1,"viability, T/C",compound 0.000316 µM,106% and 114% (2×)
same,"viability, T/C",compound 0.001 µM,98.2% and 93.5% and 70.4%
same,"viability, T/C",compound 0.00316 µM,80.9% and 92.1% and 86.5%
same,"viability, T/C",compound 0.01 µM,23.2% and 96.1% and 24.8%
same,"viability, T/C",compound 0.0316 µM,14.6% and 83.9% and 22.1%
same,"viability, T/C",compound 0.1 µM,12.7% and 99.4% and 18.4%
O=C(c1cc(Cc2n[nH]c(=O)c3ccccc23)ccc1F)N1CCN(C(=O)C2CC2)CC1 + CNC(C)C(=O)NC1CN(S(=O)(=O)c2cccc(S(=O)(=O)N3CCC4CCC(C(=O)NC(c5ccccc5)c5ccccc5)N4C(=O)C(NC(=O)C(C)NC)C3)c2)CCC2CCC(C(=O)NC(c3ccccc3)c3ccccc3)N2C1=O,IC50,[36],9490 nM
same,IC50,[37],8070 nM
same,IC50,[38],8900 nM
same,IC50,[39],9800 nM
same,IC50,[40],> 10000 nM
same,"viability, T/C",[41],103%
same,"viability, T/C",[42],98.5%
same,"viability, T/C",[43],110%
same,"viability, T/C",[44],91.7%
same,"viability, T/C","second compound 0.01 µM, first compound 3.16 µM",89.4%
same,"viability, T/C","second compound 0.01 µM, first compound 10 µM",47.9%
same,"viability, T/C",[45],99.8%
same,"viability, T/C",[46],101%
same,"viability, T/C",[47],96.2%
same,"viability, T/C",[48],109%
same,"viability, T/C","second compound 0.0316 µM, first compound 3.16 µM",95%
same,"viability, T/C","second compound 0.0316 µM, first compound 10 µM",39.7%
same,"viability, T/C",[49],90.3%
same,"viability, T/C",[50],89.2%
same,"viability, T/C",[51],83.2%
same,"viability, T/C",[52],114%
same,"viability, T/C","second compound 0.1 µM, first compound 3.16 µM",91.8%
same,"viability, T/C","second compound 0.1 µM, first compound 10 µM",45.3%
same,"viability, T/C",[53],97.8%
same,"viability, T/C",[54],107%
same,"viability, T/C",[55],117%
same,"viability, T/C",[56],87.5%
same,"viability, T/C","second compound 0.316 µM, first compound 3.16 µM",89.1%
same,"viability, T/C","second compound 0.316 µM, first compound 10 µM",48.9%
same,"viability, T/C",[57],112%
same,"viability, T/C",[58],110%
same,"viability, T/C",[59],104%
same,"viability, T/C",[60],101%
same,"viability, T/C","second compound 1 µM, first compound 3.16 µM",92.1%
same,"viability, T/C","second compound 1 µM, first compound 10 µM",58%
C=CC(=O)N1CCN(c2nc(=O)n(-c3c(C)ccnc3C(C)C)c3nc(-c4c(O)cccc4F)c(F)cc23)C(C)C1 (stereo unspecified),"viability, T/C",compound 0.0316 µM,101% and 89.6% and 100%
same,"viability, T/C",compound 0.1 µM,100% and 95.4% and 104%
same,"viability, T/C",compound 0.316 µM,105% and 90.3% and 98.7%
same,"viability, T/C",compound 1 µM,94.5% and 82.8% and 106%
same,"viability, T/C",compound 3.16 µM,108% (2×) and 100%
same,"viability, T/C",compound 10 µM,96.6% and 75.9% and 110%
same,IC50,curve of compound,> 10000 nM
CCN1C(C(=O)NC23CCC(C(=O)O)(CC2)CC3)C(c2cccc(Cl)c2F)C2(C(=O)Nc3cc(Cl)ccc32)C12CCCCC2 (stereo unspecified),"viability, T/C",compound 0.00949 µM,103% and 92.8%
same,IC50,"compound alone, run of 10/11/2022",> 3000 nM
same,IC50,curve of compound,> 3000 nM
O=C(c1ccc(F)c(F)c1Nc1ccc(I)cc1F)N1CC(O)([C@@H]2CCCCN2)C1 + CNC(C)C(=O)NC1CN(S(=O)(=O)c2cccc(S(=O)(=O)N3CCC4CCC(C(=O)NC(c5ccccc5)c5ccccc5)N4C(=O)C(NC(=O)C(C)NC)C3)c2)CCC2CCC(C(=O)NC(c3ccccc3)c3ccccc3)N2C1=O,IC50,[36],> 1000 nM
same,IC50,[37],> 1000 nM
same,IC50,[38],> 1000 nM
same,IC50,[39],> 1000 nM
same,IC50,[40],> 1000 nM
same,"viability, T/C","second compound 0.01 µM, first compound 0.00316 µM",98.5%
same,"viability, T/C","second compound 0.01 µM, first compound 0.01 µM",113%
same,"viability, T/C",[41],102%
same,"viability, T/C",[42],101%
same,"viability, T/C",[43],102%
same,"viability, T/C",[44],79.6%
same,"viability, T/C","second compound 0.0316 µM, first compound 0.00316 µM",94.7%
same,"viability, T/C","second compound 0.0316 µM, first compound 0.01 µM",103%
same,"viability, T/C",[45],88%
same,"viability, T/C",[46],102%
same,"viability, T/C",[47],100%
same,"viability, T/C",[48],90.3%
same,"viability, T/C","second compound 0.1 µM, first compound 0.00316 µM",112%
same,"viability, T/C","second compound 0.1 µM, first compound 0.01 µM",95.2%
same,"viability, T/C",[49],104%
same,"viability, T/C",[50],97.2%
same,"viability, T/C",[51],92.1%
same,"viability, T/C",[52],101%
same,"viability, T/C","second compound 0.316 µM, first compound 0.00316 µM",102%
same,"viability, T/C","second compound 0.316 µM, first compound 0.01 µM",101%
same,"viability, T/C",[53],104%
same,"viability, T/C",[54],105%
same,"viability, T/C",[55],100%
same,"viability, T/C",[56],108%
same,"viability, T/C","second compound 1 µM, first compound 0.00316 µM",109%
same,"viability, T/C","second compound 1 µM, first compound 0.01 µM",111%
same,"viability, T/C",[57],101%
same,"viability, T/C",[58],90.2%
same,"viability, T/C",[59],99.7%
same,"viability, T/C",[60],84.7%
